# Earlier results as cited in publication PMC10465233, “Lys-urea-Aad, Lys-urea-Cmc and Lys-urea-Cms as potential pharmacophores for the design of PSMA-targeted radioligands to reduce off-target uptake in kidneys and salivary glands” (Theranostics, 2023).
# Test system: LNCaP tumor-bearing mice
# Settings: cited from earlier work
smiles,measurement,setting,value
O=C([O-])CN1CCN(CC(=O)[O-])CCN(CC(=O)NCC2CCC(C(=O)NC(Cc3c4ccccc4cc4ccccc34)C(=O)NCCCCC(NC(=O)NC(CCC(=O)O)C(=O)O)C(=O)O)CC2)CCN(CC(=O)[O-])CC1.[68Ga+3] (stereo not shown) [[^68Ga]Ga-HTK03141],Kidney uptake,1 h post-injection,170±26.4 %ID/g
same,Tumor uptake,1 h post-injection,23.1±6.11 %ID/g
same,Salivary gland uptake,"1 h post-injection, unreported data in b5",4.99±0.88 %ID/g
same,Peaked tumor uptake,,23.1 %ID/g
